Assay results: patent publication US10208056B2, “Condensed tricyclic compounds as protein kinase inhibitors” (FUNDACIÓN DEL SECTOR PÚBLICO ESTATAL CENTRO NACIONAL DE …, priority 2015, dated 2019)

Experiments:
CDK19/Cyclin C = CDK19/Cyclin C (Homo sapiens (Human), UniProt Q9BWU1); assay: CDK19/Cyclin C binding assay (LanthaScreen Eu-Kinase Binding Assay); conditions: read-out: CDK19-CYCC IC50
Experimental: The binding assay relies on the LanthaScreen™ Eu-Kinase Binding Assay (Invitrogen).
Assay conditions were as indicated by the kit manufacturers with the following adaptations: • Assay buffer: 50 mM HEPES, pH 7.5, 1 mM EGTA, 0.01% Brij-35, 10 mM MgCl2 • Assay volume: 20 μl • Incubation time and temperature: 60 min at 25° C. • Cdk19-Cyclin C concentration: 2 nM • Tracer concentration: 20 nM • (Eu)-labelled anti-GST antibody concentration: 2 nM • Tested compound: Serial 1:3 dilutions • Final DMSO concentration in the assay: 1%
(§1) Assays were performed in 384-well plates. The final read out was generated using an EnVision plate reader (Perkin-Elmer).

Haspin kinase = Haspin kinase (Homo sapiens (Human), UniProt Q8TF76); assay: Haspin kinase assay (ADP-Glo); type: biochemical; conditions: ATP 150 μM
Excerpt: The kinase assay relies on ADP-Glo^KM biochemical kinase assay (Promega). This is a luminescent kinase assay that measures ADP formed from a kinase reaction. Then ADP is converted into ATP, which is transformed into a light signal by Ultra-Glo™ Luciferase. The luminescent signal positively correlates with kinase activity. The assay measures the intrinsic ATPase activity (in the absence of peptidic substrate as phosphate acceptor).
The enzyme was purchase from Invitrogen (PV5708) as the kinase domain of GST tagged recombinant human proteins.
Assay conditions were as indicated by the kit manufacturers with the following adaptations: • Assay buffer: 15 mM HEPES pH 7.4, 20 mM NaCl, 1 mM EGTA, 0.02% Tween 20, 10 mM MgCl2, 0.1 mg/ml BGG • Assay volume: 20 μl • Incubation time and temperature: 60 min at 30° C. • Haspin concentration: 20 nM • ATP concentration: 150 μM • Tested compound: Serial 1:3 dilutions • Final DMSO concentration in the assay: 1%
Assays were performed in 384-well plates. The final read out was generated using an EnVision plate reader (Perkin-Elmer). Luminescent relative units are normalized against the control activity included for each compound (i.e., 100% Haspin activity, without compound) and the percentage of inhibition is calculated.

CDK8/Cyclin C = CDK8/Cyclin C (Homo sapiens (Human), UniProt P49336); assay: CDK8/Cyclin C binding assay (LanthaScreen Eu-Kinase Binding Assay); conditions: binding assay
Experimental: The enzyme has been purchase from Invitrogen (PV4402) as a dimer of full-length His-tagged recombinant human proteins.
as §1

Chain of CDK8/Cyclin C (P49336 whole entry): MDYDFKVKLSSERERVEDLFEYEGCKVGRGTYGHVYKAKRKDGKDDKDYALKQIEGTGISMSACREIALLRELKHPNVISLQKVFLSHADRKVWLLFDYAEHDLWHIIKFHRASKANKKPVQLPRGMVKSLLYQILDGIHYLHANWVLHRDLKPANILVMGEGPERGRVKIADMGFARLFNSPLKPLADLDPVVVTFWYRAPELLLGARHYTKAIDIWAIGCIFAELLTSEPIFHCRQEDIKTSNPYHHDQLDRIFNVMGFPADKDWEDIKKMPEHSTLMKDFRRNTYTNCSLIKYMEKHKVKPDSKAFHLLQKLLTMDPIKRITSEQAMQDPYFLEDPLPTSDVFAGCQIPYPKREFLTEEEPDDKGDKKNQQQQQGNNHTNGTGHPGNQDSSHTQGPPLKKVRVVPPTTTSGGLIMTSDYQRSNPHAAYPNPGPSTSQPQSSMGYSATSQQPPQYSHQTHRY
Chain of CDK8/Cyclin C (P24863 whole entry partner): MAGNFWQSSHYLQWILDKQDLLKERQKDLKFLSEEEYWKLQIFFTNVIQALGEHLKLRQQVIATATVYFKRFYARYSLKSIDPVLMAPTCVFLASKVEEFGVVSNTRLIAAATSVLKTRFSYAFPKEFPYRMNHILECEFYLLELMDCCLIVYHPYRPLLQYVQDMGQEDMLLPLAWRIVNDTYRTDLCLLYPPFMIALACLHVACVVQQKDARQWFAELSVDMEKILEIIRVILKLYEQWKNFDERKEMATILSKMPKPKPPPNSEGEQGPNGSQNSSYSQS
Chain of CDK19/Cyclin C (Q9BWU1 whole entry): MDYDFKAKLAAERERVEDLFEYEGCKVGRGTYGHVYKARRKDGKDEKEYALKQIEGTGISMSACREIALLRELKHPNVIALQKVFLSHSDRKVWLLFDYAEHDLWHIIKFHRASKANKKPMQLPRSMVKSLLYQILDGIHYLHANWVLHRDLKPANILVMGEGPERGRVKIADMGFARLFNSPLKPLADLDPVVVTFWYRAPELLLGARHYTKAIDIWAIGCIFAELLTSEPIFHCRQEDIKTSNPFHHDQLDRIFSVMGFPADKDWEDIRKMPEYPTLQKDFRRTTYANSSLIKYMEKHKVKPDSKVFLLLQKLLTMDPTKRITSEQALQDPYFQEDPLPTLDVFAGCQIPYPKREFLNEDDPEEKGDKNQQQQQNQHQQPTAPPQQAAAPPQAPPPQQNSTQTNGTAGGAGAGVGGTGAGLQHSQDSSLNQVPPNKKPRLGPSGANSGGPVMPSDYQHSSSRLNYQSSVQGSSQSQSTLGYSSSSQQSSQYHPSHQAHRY
Chain of CDK19/Cyclin C (P24863 whole entry partner): as the sequence (P24863 whole entry partner) above
Chain of Haspin kinase (Q8TF76 484-798): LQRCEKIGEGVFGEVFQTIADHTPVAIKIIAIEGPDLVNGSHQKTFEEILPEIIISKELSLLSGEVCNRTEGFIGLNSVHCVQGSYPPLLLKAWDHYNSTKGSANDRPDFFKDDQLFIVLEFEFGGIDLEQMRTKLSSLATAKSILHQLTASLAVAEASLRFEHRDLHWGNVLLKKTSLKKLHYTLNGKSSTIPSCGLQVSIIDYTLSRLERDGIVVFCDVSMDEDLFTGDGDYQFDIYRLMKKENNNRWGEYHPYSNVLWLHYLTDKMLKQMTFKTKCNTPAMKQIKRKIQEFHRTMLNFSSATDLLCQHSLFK

| SMILES | IC50 (CDK19/Cyclin C) | IC50 (Haspin kinase) | IC50 (CDK8/Cyclin C) |
| --- | --- | --- | --- |
| NC(=O)c1cc2c([nH]1)-c1ccncc1OC21CCCCC1 [Example 13] | 8.22 nM | 53.6 nM | 4.18 nM |
| Cn1c(C(N)=O)cc2c1-c1c(Cl)cncc1OC2(C)C [Example 41] | 158 nM | 1310 nM | 55.5 nM |
| COc1ccc(-c2c(C(N)=O)[nH]c3c2C(C)(C)Oc2cnccc2-3)cc1 [Example 51] | 171 nM | 321 nM | 31.9 nM |
| CC1(C)Oc2cnc(Cl)cc2-c2[nH]c(C(N)=O)cc21 [Example 38] | – | 6830 nM | 461 nM |
| COc1cccc(-c2c(C(N)=O)[nH]c3c2C(C)(C)Oc2cnccc2-3)c1 [Example 85] | – | 260 nM | 127 nM |
| CCn1c(C(N)=O)cc2c1-c1ccncc1O[C@@H]2C1CCOCC1 (single isomer, unassigned) [Example 96] | – | 355 nM | < 1.41 nM |
| CC1(C)Oc2cncc(Cl)c2-c2[nH]c(C(=O)O)cc21 [Example 35] | 31.4 nM | 151 nM | 13.3 nM |
| CC(C)n1c(C(=O)O)cc2c1-c1ccncc1OC2(C)C [Example 26] | – | 49000 nM | 5940 nM |
| CC1(C)Oc2cnccc2-c2[nH]c(C(N)=O)c(-c3ccccc3C(F)(F)F)c21 [Example 74] | – | 743 nM | 211 nM |
| COc1ccccc1-c1c2c(n(CCF)c1C(=O)NCCF)-c1ccncc1OC2(C)C [Example 78] | – | 33300 nM | 484 nM |
| CC1(C)Oc2cnccc2-c2c1cc(C(N)=O)n2CC(F)(F)F [Example 53] | 19.4 nM | 186 nM | 21.6 nM |
| CC1(C)Oc2cnccc2-c2[nH]c(C(=O)N3CCOCC3)cc21 [Example 21] | – | 868 nM | 671 nM |
| COCCn1c(C(=O)O)cc2c1-c1ccncc1OC2(C)C [Example 27] | – | 49900 nM | 10000 nM |
| CC1(C)Oc2c(ccnc2Cl)-c2[nH]c(C(=O)O)cc21 [Example 37] | – | 1650 nM | 6290 nM |
| Cn1c(C(=O)O)cc2c1-c1ccncc1OC2(C)C [Example 23] | 233 nM | 648 nM | 61.1 nM |
| CC(C)n1c(C(N)=O)cc2c1-c1ccncc1OC2(C)C [Example 25] | – | 22300 nM | 5870 nM |
| CC1(C)Oc2cnccc2-c2[nH]c(C(=O)Nc3ccccc3)cc21 [Example 4] | – | 7550 nM | 5280 nM |
| CCn1c(C(N)=O)c(C2CC2)c2c1-c1ccncc1OC2(C)C [Example 94] | – | 17.5 nM | 2.65 nM |
| O=C(O)c1cc2c([nH]1)-c1ccncc1OC21CCN(C2CC2)CC1 [Example 17] | – | 5960 nM | 1530 nM |
| CC1(C)Oc2cnccc2-c2[nH]c(C(N)=O)c(C3=CCOCC3)c21 [Example 55] | 70.5 nM | 146 nM | 39.3 nM |
| CC1(C)Oc2cncc(-c3ccccc3)c2-c2[nH]c(C(N)=O)cc21 [Example 39] | – | 2330 nM | 206 nM |

| SMILES | IC50 (CDK19/Cyclin C) | IC50 (Haspin kinase) | IC50 (CDK8/Cyclin C) |
| --- | --- | --- | --- |
| NC(=O)c1cc2c([nH]1)-c1ccncc1OC21CCN(CCCC(F)(F)F)CC1 [Example 48] | – | 470 nM | 886 nM |
| CC1(C)Oc2cnccc2-c2[nH]c(C(N)=O)c(-c3ccc(F)cc3)c21 [Example 50] | – | 782 nM | 581 nM |
| CC1(C)Oc2cnccc2-c2[nH]c(C(N)=O)c(Cl)c21 [Example 28] | 16.6 nM | 26.6 nM | 9.32 nM |
| COCCNC(=O)c1cc2c([nH]1)-c1ccncc1OC2(C)C [Example 7] | – | 1020 nM | 1490 nM |
| CC1(C)Oc2cnccc2-c2[nH]c(C(N)=O)c(-c3cccc(S(N)(=O)=O)c3)c21 [Example 40] | – | 254 nM | 269 nM |
| O=C(O)c1cc2c([nH]1)-c1ccncc1OC21CCCCC1 [Example 14] | 3.01 nM | 1000 nM | 23.9 nM |
| CC1(C)Oc2cnccc2-c2[nH]c(C(N)=O)c(-c3ccc4[nH]ncc4c3)c21 [Example 65] | 10000 nM | 933 nM | 10000 nM |
| Cl.NC(=O)c1cc2c([nH]1)-c1ccncc1OC21CCNCC1 [Example 12] | 550 nM | 53.3 nM | 412 nM |
| CC1(C)Oc2c(ccnc2Cl)-c2[nH]c(C(N)=O)cc21 [Example 36] | – | 292 nM | 559 nM |
| NC(=O)c1cc2c([nH]1)-c1ccncc1OC21CCN(C2CC2)CC1 [Example 16] | – | 4280 nM | 5700 nM |
| CC(=O)N1CCC2(CC1)Oc1cnccc1-c1[nH]c(C(N)=O)cc12 [Example 77] | – | 188 nM | 7.48 nM |
| CC1(C)Oc2cnccc2-c2[nH]c(C(=O)NCc3ccccc3)cc21 [Example 8] | – | 305 nM | 340 nM |
| Cn1c(C(N)=O)cc2c1-c1ccncc1OC21CCC1 [Example 67] | 1.41 nM | 27.6 nM | 0.466 nM |
| C=Cc1c(C(N)=O)[nH]c2c1C(C)(C)Oc1cnccc1-2 [Example 33] | 29.5 nM | 90.6 nM | 12.3 nM |
| CC1(C)Oc2cnccc2-c2[nH]c(C(=O)O)c(C3=CCOCC3)c21 [Example 56] | 86.6 nM | 683 nM | 78.5 nM |
| COC(=O)c1cc2c([nH]1)-c1ccncc1OC2(C)C [VIII] | – | – | 677 nM |
| CC(C)C1(C)Oc2cnccc2-c2[nH]c(C(N)=O)cc21 (centres unmarked) [Example 54] | 97.1 nM | 52.9 nM | 31.1 nM |
| CC1(C)Oc2cnccc2-c2[nH]c(C(N)=O)c(-c3ccc(S(N)(=O)=O)cc3)c21 [Example 32] | 81.3 nM | 235 nM | 26.2 nM |
| CCN(CC)C(=O)c1cc2c([nH]1)-c1ccncc1OC2(C)C [Example 9] | – | 2350 nM | 979 nM |
| NC(=O)c1cc2c([nH]1)-c1ccncc1OC21CCOCC1 [Example 20] | 211 nM | 206 nM | 54.7 nM |
| CC1(C)Oc2cnccc2-c2c1cc(C(=O)O)n2Cc1ccccc1 [Example 24] | – | 20400 nM | 10000 nM |

| SMILES | IC50 (CDK19/Cyclin C) | IC50 (Haspin kinase) | IC50 (CDK8/Cyclin C) |
| --- | --- | --- | --- |
| CCN1CCC2(CC1)Oc1cnccc1-c1[nH]c(C(N)=O)cc12 [Example 42] | – | 153 nM | 197 nM |
| CC1(C)Oc2cnccc2-c2[nH]c(C(=O)NCCc3ccccc3)cc21 [Example 11] | – | 418 nM | 162 nM |
| CC1Oc2cnccc2-c2[nH]c(C(N)=O)cc21 (centres unmarked) [Example 58] | 25.5 nM | 247 nM | 14.4 nM |
| CC1(C)Oc2cnccc2-c2[nH]c(C(=O)O)cc21 [Example 2] | – | 306 nM | 146 nM |
| CCn1c(C(=O)O)cc2c1-c1ccncc1OC2(C)C [Example 44] | – | 6730 nM | 312 nM |
| CC1(C)Oc2cnccc2-c2[nH]c(C(=O)NC3CCNCC3)cc21 [Example 10] | – | 1730 nM | 3520 nM |
| CC1(C2(C)Oc3cnccc3-c3[nH]c(C(N)=O)cc32)COC1 (centres unmarked) [Example 49] | – | 5700 nM | 315 nM |
| NC(=O)c1cc2c([nH]1)-c1ccncc1OC21CCN(CCC(F)(F)F)CC1 [Example 47] | – | 466 nM | 120 nM |
| COC(=O)c1[nH]c2c(c1-c1ccc(S(N)(=O)=O)cc1)C(C)(C)Oc1cnccc1-2 [LXX] | – | – | 2850 nM |
| CCn1c(C(N)=O)c(Cl)c2c1-c1ccncc1OC21CCOCC1 [Example 104] | – | 8.91 nM | 2.41 nM |
| CCn1c(C(N)=O)cc2c1-c1ccncc1OC21CCC1 [Example 66] | 1.41 nM | – | 0.191 nM |
| COC(=O)c1[nH]c2c(c1Br)C(C)(C)Oc1cnccc1-2 [LXVIII] | – | – | 780 nM |
| COC(=O)c1[nH]c2c(c1-c1ccccc1)C(C)(C)Oc1cnccc1-2 [LXIX] | – | – | 2000 nM |
| O=C(O)c1cc2c([nH]1)-c1ccncc1OC21CCN(CC(F)(F)F)CC1 [Example 19] | – | 2950 nM | 652 nM |
| CC1(C)Oc2cnccc2-c2[nH]c(C(N)=O)c(-c3ccccc3O)c21 [Example 64] | – | 656 nM | 112 nM |
| CCn1c(C(N)=O)c(Cl)c2c1-c1ccncc1OC21CCCCC1 [Example 105] | – | 8.82 nM | < 1.41 nM |
| NC(=O)c1cc2c(n1CCF)-c1ccncc1OC21CCOCC1 [Example 92] | – | 25.6 nM | < 1.41 nM |
| CC(C)NC(=O)c1cc2c([nH]1)-c1ccncc1OC2(C)C [Example 6] | – | 1780 nM | 2410 nM |
| CCn1c(C(N)=O)cc2c1-c1ccncc1O[C@H]2C1CCOCC1 (single isomer, unassigned) [Example 95] | – | – | < 1.41 nM |
| CC(C)(C)OC(=O)N1CCC(NC(=O)c2cc3c([nH]2)-c2ccncc2OC3(C)C)CC1 [Example 5] | – | 18400 nM | 1870 nM |
